Data as given in the CheMixHub ionic liquid set.

Assay: xn = mol fraction of the nth substance listed
Details: 101 kPa

CCCCCCCCCCCCCCCC[N+](C)(C)C.[Br-] + O + CO
electrical conductivity [S/m]
Details | 293 K | 298 K | 303 K | 308 K | 313 K
x1 = 1.91e-06, x2 = 0.92 | 0.0025 | 0.0026 | 0.0022 | 0.0037 | 0.003
x1 = 5.74e-06, x2 = 0.92 | 0.0046 | 0.0047 | 0.0044 | 0.0063 | 0.0059
x1 = 9.57e-06, x2 = 0.92 | 0.0065 | 0.0067 | 0.0069 | – | 0.0088
x1 = 1.148e-05, x2 = 0.92 | 0.0077 | 0.0079 | 0.0083 | 0.0107 | 0.0106
x1 = 1.34e-05, x2 = 0.92 | 0.0087 | 0.009 | 0.0096 | 0.0122 | 0.0122
x1 = 1.531e-05, x2 = 0.92 | 0.0099 | 0.0102 | 0.0109 | – | 0.014
x1 = 1.723e-05, x2 = 0.92 | 0.0111 | 0.0114 | 0.0123 | 0.0157 | 0.016
x1 = 1.914e-05, x2 = 0.92 | 0.0121 | 0.0125 | 0.0138 | 0.0174 | 0.018
x1 = 2.871e-05, x2 = 0.92 | 0.0168 | 0.018 | 0.0199 | 0.0248 | 0.0261
x1 = 3.828e-05, x2 = 0.92 | 0.0215 | 0.0236 | 0.0263 | 0.0325 | 0.0352
x1 = 5.742e-05, x2 = 0.9199 | 0.0306 | 0.0338 | 0.0381 | 0.0467 | 0.0521
x1 = 7.656e-05, x2 = 0.9199 | 0.0391 | 0.0441 | 0.0502 | 0.0608 | 0.0687
x1 = 9.57e-05, x2 = 0.9199 | 0.0439 | 0.0508 | 0.0579 | 0.0702 | –
x1 = 0.0001148, x2 = 0.9199 | 0.0472 | 0.0552 | 0.0632 | 0.0758 | –
x1 = 0.000134, x2 = 0.9199 | 0.05 | 0.0585 | 0.0675 | 0.0806 | –
x1 = 0.0001531, x2 = 0.9199 | 0.0527 | 0.0618 | 0.0719 | 0.0858 | –
x1 = 0.0001722, x2 = 0.9198 | 0.0554 | 0.0652 | 0.0758 | 0.0904 | –
x1 = 0.0001914, x2 = 0.9198 | 0.0582 | 0.0684 | 0.0801 | 0.0955 | –
x1 = 0.0002105, x2 = 0.9198 | 0.0607 | 0.0715 | 0.0839 | 0.101 | –
x1 = 0.0002296, x2 = 0.9198 | 0.0631 | 0.0747 | 0.0879 | 0.105 | –
x1 = 0.0002488, x2 = 0.9198 | 0.0661 | 0.078 | 0.0917 | 0.11 | –
x1 = 0.0002679, x2 = 0.9198 | 0.0688 | 0.0811 | 0.0958 | 0.115 | –

CCCCCCCCn1cc[n+](C)c1.[Cl-] + CCCCCCCCn1cc[n+](C)c1.F[B-](F)(F)F
x1 = 1
Details | electrical conductivity [S/m] | viscosity [mPa·s]
303 K | 0.00213 | –
308 K | 0.00353 | –
313 K | 0.00562 | –
318 K | 0.00861 | –
328.15 K | – | 1367

c1ccsc1 + CCCCCCCC[n+]1ccc2ccccc2c1.O=S(=O)([N-]S(=O)(=O)C(F)(F)F)C(F)(F)F
Details | viscosity [mPa·s]
348.15 K, x1 = 1 | 0.34

CCOCn1cc[n+](C)c1.O=S(=O)([N-]S(=O)(=O)C(F)(F)F)C(F)(F)F + O
Details | viscosity [mPa·s]
333 K, x1 = 0.8415 | 11.7
